The Ki is the dissociation constant of the complex between target and ligand, obtained from inhibition or displacement. As usually defined, the Km is the substrate concentration at which the rate is half of its maximum.

The target of data set [1] is T1, falcipain-2 (Plasmodium falciparum, UniProt Q8I6U4).
T1 construct: gene FP2A
Description: fluorometric Z-LR-AMC kinetic assay with refolded recombinant enzyme; global fit to mixed inhibition model. In kind it is biochemical.

The target of data set [2] is T1, falcipain-2. Description: fluorometric Z-LR-AMC kinetic assay with refolded recombinant enzyme; global fit to competitive and Morrison equations; reversibility by rapid dilution. In kind it is biochemical.
Data set [3] deals with Cc1cc(=O)oc2cc(NC(=O)[C@H](CCCNC(=N)N)NC(=O)[C@H](CC(C)C)NC(=O)OCc3ccccc3)ccc12. Description: purified protein. Particulars: accommodates completely within falcipain-2 active site.

T1 sequence (Q8I6U4 244-484): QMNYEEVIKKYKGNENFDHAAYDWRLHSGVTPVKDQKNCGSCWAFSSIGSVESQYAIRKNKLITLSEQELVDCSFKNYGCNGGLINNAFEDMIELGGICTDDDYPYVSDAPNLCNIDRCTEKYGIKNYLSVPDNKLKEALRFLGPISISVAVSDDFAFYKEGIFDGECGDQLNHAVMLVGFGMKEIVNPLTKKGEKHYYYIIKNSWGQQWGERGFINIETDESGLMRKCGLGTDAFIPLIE

On to `C=C1c2cccc(O)c2C(=O)C2=C(O)[C@]3(O)C(=O)C(C(N)=O)=C(O)[C@@H](N(C)C)[C@@H]3[C@@H](O)[C@H]12` [methacycline], for which the Ki in data set [1] came out at 84.4 ± 6.5 µM.

For the molecule `CC(C)(F)C[C@H](N[C@@H](c1ccc(-c2ccc(S(C)(=O)=O)cc2)cc1)C(F)(F)F)C(=O)NC1(C#N)CC1` [odanacatib], the Ki in data set [2] came to 0.0982 ± 0.0102 µM.

As for falcipain-2 (Plasmodium falciparum 3D7), in data set [3], the Km was determined as 4.8 µM.

(Values after article PMC6691349 (Frontiers in Chemistry, 2019).)
